In patent US4939177A, “Use of avarol for the control of AIDS and ARC” (Merz + Co. GmbH & Co., priority 1986, dated 1990):

Key:
[1] = system: DTH to oxazolone in NMRI mice; test: Contact allergy to oxazolone; format: in vivo, mouse; conditions: 3-30 mg/kg i.p., day -1 to +2 or day +6 to +8, P>0.05
Method: Allergic contact dermatitis against oxazolone was produced according to the method of Asherson and Ptak (Immunol. 15: 405-416; 1968) as well as those of Bure and Degrand (Agents and Actions 9: 534; 1979). Male NMRI mice (20-22 g; 10/group) were sensitized with 100 μl of a 2% oxazolone in acetone solution onto the shaved abdomen (day 0). Animals were treated with avarol (i.p.) daily from day -1 to +2 or from day +6 to +8; control group was treated with deoxymethasone (Casella-Hoechst) as a standard per os at a daily dose of 30 mg/kg for the same period of time as for avarol. Seven days after sensitization 10 μl of a 3% oxazolane (this concentration was previously found to give more reproducible results than the lower 2% concentration) solution were topically applied onto the inner side of one ear, whereas the other ear received only acetone. […] Treated groups were compared with controls using the U-test.

[2] = system: IgM titer; test: Serum IgM titer of SRBC-immunized mice; format: in vivo, mouse; conditions: 30 mg/kg i.p.
Method: The plaque test of Jerne and Nordin (Science 140: 405-406, 1963) was used with the modification given by Cunningham and Szenberg (Immunolog. 14: 599-601; 1968). Briefly, 8 male NMRI mice per group (20-22 g) were immunized on day 0 by i.p. injection of 5×10^8 SRBC in 0.5 ml saline. Treatment with avarol was done i.p. either from day 0 to day +4 or from day -4 to day 0. One hour after the last drug administration, the animals were killed by a blow on the head and bled. The spleens were removed and a single cell suspension was prepared by teasing the pooled spleens through a 120-μm mesh sieve. After lysing the erythrocytes by 0.15M NH4 Cl, the cells were washed twice in Hank's balanced salt solution containing 29 ml of 7.5% NaHCO3 and 10 ml of 1M HEPES buffer solution per one liter. The cells were resuspended in 2 ml per spleen. Six Cunningham chambers per group were filled with a mixture of 0.5 ml of a suitable dilution of spleen cells (generally 1:100), 0.5 ml of a suspension of SRBC (10^9 /ml) and 125 μl of normal guinea pig complement. After 90-120 min of incubation at 37° C., the number of plaques was counted. Plaques per spleen or per 10^6 spleen cells were calculated.
The pooled blood of 8 mice was centrifuged to obtain the serum. IgM and IgG titers were measured with the mercaptoethanol method (Hudson, L. and Hay, F. C. Practical Immunology, Blackwell Sci., Oxford; 1983).

[3] = system: human peripheral blood lymphocytes (IgM); test: In vitro IgM production by peripheral blood lymphocytes; format: cell-based
Method: (§1) Human peripheral blood lymphocytes (6×10^5 cells/ml) were cultured in the presence of 0 to 2 μg/ml of pokeweed mitogen (PWM; Sigma no. 9379) in Dulbeccos minimum essential medium, supplemented with 20% fetal calf serum, for 6 days. The assays were performed in a final volume of 200 μl in microtiter plates (Dynatech; M129B) (Muller et al., Eur. J. Cancer Clin. Oncol. 22: 473-476; 1986). Avarol in a concentration range of 0-3 μg/ml was added at time 0 or 3 days after starting the culture. The supernatants were harvested and assayed for human immunoglobulin content.
(§2) The culture supernatants were assayed by the enzyme-linked immunosorbent assay (Houtman et al., Clin. Exp. Immunol. 62: 696-704; 1985) using anti-human IgG (Dakopatts, Hamburg; P214) and anti-human IgM (Dakopatts; P215). These antibodies were conjugated to peroxidase. Bound enzyme activity was measured using 2,2'-azino-bis(3-ethylbenzthiazolinesulfonic acid) (Sigma no. A-1888) as substrate.

[4] = system: human peripheral blood lymphocytes (IgG); test: In vitro IgG production by peripheral blood lymphocytes; format: cell-based
Method: as §1, §2

[5] = system: lymphocyte cultures; test: [^3 H]-dThd incorporation in lymphocyte cultures from avarol-pretreated mice; format: cell-based, mouse; conditions: pretreatment of mice; macrophage-containing and macrophage-depleted cultures
Description: The effect of avarol on the lymphoid system was studied both in vitro and in vivo. […] The stimulatory influence of avarol on humoral immune responses is not accompanied by a change of the antibody-mediated hypersensitivity reaction, as measured by the Arthus reaction. No significant influence of avarol on the cellular immune system in vivo (rats or mice) was found, as taken from studies on delayed-type hypersensitivity reactions to sheep red blood cells and to oxazolone.

[6] = system: herpes simplex virus; conditions: in vitro, cultures of herpes simplex virus; cited from earlier work
[7] = Organ distribution of tritium labelled avarol in rats; format: in vivo, rat; conditions: for Concentration of Avarol, Brain / Concentration of Avarol, Heart / Concentration of Avarol, Kidney / Concentration of Avarol, Liver / Concentration of Avarol, Skin / Concentration of Avarol, Spleen / Concentration of Avarol, Testes: rat, 24 hours
[8] = 0.3 or 1 μg/ml, irrespective of PWM
[9] = avarol 0.3 μg/ml, PWM +, 0 to 6 days
[10] = avarol 0.3 μg/ml, PWM +, 3 to 6 days
[11] = avarol 0.3 μg/ml, PWM -, 0 to 6 days
[12] = avarol 0.3 μg/ml, PWM -, 3 to 6 days
[13] = avarol 1.0 μg/ml, PWM +, 0 to 6 days
[14] = avarol 1.0 μg/ml, PWM +, 3 to 6 days
[15] = avarol 1.0 μg/ml, PWM -, 0 to 6 days
[16] = avarol 1.0 μg/ml, PWM -, 3 to 6 days
[17] = avarol 3.0 μg/ml, PWM +, 0 to 6 days
[18] = avarol 3.0 μg/ml, PWM +, 3 to 6 days
[19] = avarol 3.0 μg/ml, PWM -, 0 to 6 days
[20] = avarol 3.0 μg/ml, PWM -, 3 to 6 days

With `CC1=CCC[C@H]2[C@](C)(Cc3cc(O)ccc3O)[C@@H](C)CC[C@]12C` [Avarol, 2-[(1R)-1,2,3,4,4a,7,8,8aα-octahydro-1β,2β,4aβ,5-tetramethyl-1-naphthylmethyl]-1,4-benzenediol] the “influence on DTH to oxazolone, in words” value [1] was “did not influence significantly”, the “Titer IgM” value ([2]; from 0 to +4 days, untreated 256) was 256 and the “Titer IgM” value ([2]; from -4 to 0 days, untreated 512) was 512. For the same compound, the “IgM production, in words” value [3, 8] was “significant increase”, the IgM synthesized [3, 9] was 20.4 ± 5.1 µg/mL and the IgM synthesized [3, 10] was 24.7 ± 5.6 µg/mL. It also gave an IgM synthesized [3, 11] of 14.7 ± 3.4 µg/mL, an IgM synthesized [3, 12] of 14.2 ± 3.3 µg/mL and an IgM synthesized [3, 13] of 23.5 ± 5.5 µg/mL. It also gave an IgM synthesized [3, 14] of 25.6 ± 5.9 µg/mL, an IgM synthesized [3, 15] of 15.6 ± 4.0 µg/mL and an IgM synthesized [3, 16] of 15.9 ± 4.2 µg/mL. The IgM synthesized [3, 17] was 10.5 ± 2.6 µg/mL, the IgM synthesized [3, 18] was 11.7 ± 2.9 µg/mL and the IgM synthesized [3, 19] was 8.1 ± 1.8 µg/mL. For the same compound, the IgM synthesized [3, 20] was 8.4 ± 1.9 µg/mL, the “IgM production, in words” value ([3]; higher avarol concentrations) was “turned to normal values” and the “IgG production, in words” value [4, 8] was “significant increase”. It also gave an IgG synthesized [4, 9] of 6.7 ± 1.5 µg/mL, an IgG synthesized [4, 10] of 7.9 ± 1.9 µg/mL and an IgG synthesized [4, 11] of 2.1 ± 0.5 µg/mL. For the same compound, the IgG synthesized [4, 12] was 2.0 ± 0.5 µg/mL, the IgG synthesized [4, 13] was 7.0 ± 1.6 µg/mL and the IgG synthesized [4, 14] was 8.5 ± 1.9 µg/mL. For the same compound, the IgG synthesized [4, 15] was 2.3 ± 0.6 µg/mL, the IgG synthesized [4, 16] was 2.2 ± 0.5 µg/mL and the IgG synthesized [4, 17] was 3.9 ± 1.0 µg/mL. The IgG synthesized [4, 18] was 4.9 ± 1.0 µg/mL, the IgG synthesized [4, 19] was 1.2 ± 0.3 µg/mL and the IgG synthesized [4, 20] was 1.3 ± 0.3 µg/mL. The “IgG production, in words” value ([4]; higher avarol concentrations) was “turned to normal values”, the “[^3 H]-dThd incorporation rate, in words” value [5] was “higher [^3 H]-dThd incorporation rate” and the virostatic action [6] was “certain virostatic action in vitro”. For the same compound, the “Concentration of Avarol, Brain” value ([7]; i.v. 2 mg/kg) was 0.45 microgram of Avarol per gram o, the “Concentration of Avarol, Heart” value ([7]; i.v. 2 mg/kg) was 0.7 microgram of Avarol per gram o and the “Concentration of Avarol, Kidney” value ([7]; i.v. 2 mg/kg) was 1.6 microgram of Avarol per gram o. For the same compound, the “Concentration of Avarol, Liver” value ([7]; i.v. 2 mg/kg) was 6.4 microgram of Avarol per gram o, the “Concentration of Avarol, Skin” value ([7]; i.v. 2 mg/kg) was 0.4 microgram of Avarol per gram o and the “Concentration of Avarol, Spleen” value ([7]; i.v. 2 mg/kg) was 1.7 microgram of Avarol per gram o. For the same compound, the “Concentration of Avarol, Testes” value ([7]; i.v. 2 mg/kg) was 0.48 microgram of Avarol per gram o, the “Concentration of Avarol, Brain” value ([7]; i.v. 10 mg/kg) was 0.58 microgram of Avarol per gram o and the “Concentration of Avarol, Heart” value ([7]; i.v. 10 mg/kg) was 0.9 microgram of Avarol per gram o. For the same compound, the “Concentration of Avarol, Kidney” value ([7]; i.v. 10 mg/kg) was 2.2 microgram of Avarol per gram o, the “Concentration of Avarol, Liver” value ([7]; i.v. 10 mg/kg) was 6.9 microgram of Avarol per gram o and the “Concentration of Avarol, Skin” value ([7]; i.v. 10 mg/kg) was 0.6 microgram of Avarol per gram o. The “Concentration of Avarol, Spleen” value ([7]; i.v. 10 mg/kg) was 1.9 microgram of Avarol per gram o, the “Concentration of Avarol, Testes” value ([7]; i.v. 10 mg/kg) was 0.63 microgram of Avarol per gram o and the “Concentration of Avarol, Brain” value ([7]; i.v. 20 mg/kg) was 0.64 microgram of Avarol per gram o. The “Concentration of Avarol, Heart” value ([7]; i.v. 20 mg/kg) was 0.9 microgram of Avarol per gram o, the “Concentration of Avarol, Kidney” value ([7]; i.v. 20 mg/kg) was 2.4 microgram of Avarol per gram o and the “Concentration of Avarol, Liver” value ([7]; i.v. 20 mg/kg) was 7.4 microgram of Avarol per gram o. For the same compound, the “Concentration of Avarol, Skin” value ([7]; i.v. 20 mg/kg) was 0.6 microgram of Avarol per gram o, the “Concentration of Avarol, Spleen” value ([7]; i.v. 20 mg/kg) was 2.2 microgram of Avarol per gram o and the “Concentration of Avarol, Testes” value ([7]; i.v. 20 mg/kg) was 0.67 microgram of Avarol per gram o. The blood-brain barrier penetration ([7]; rats, i.v.) was “penetrates the blood-brain barrier”.
